We go through three substances from US6972172B2, “Combinatorial complex carbohydrate libraries and methods for the manufacture and uses thereof” (Glycominds Ltd., priority 2000, dated 2005).

The conditions of assay [1]: activity of the polysaccharide as cited from the reference in Table 15; cited from earlier work.
Assay [2] deals with TGP lectin. Put plainly: TGP lectin binding assay. Further details: species or system Tereagonolobus purpureas. Particulars: Library 1 strip after the ERs sequence; peroxidase-conjugated lectin, O.D. 450 nm; versus control strip without nucleotide sugar. Here is the method: TGP: 100 μl of 20 μg/ml TGP lectin conjugated to peroxidase (SIGMA L-1508, 10 peroxidase units per mg protein) was added to the plates and incubated for one hour at 25° C. in TBS containing 1% BSA and 10 millimolar of MnCl2 and of CaCl2. The wells were washed three times with 200 μl TBST with a last wash consisting of a 15 minutes soak. 100 μl of fresh peroxidase substrate solution was added, and an hour later the O.D. of the solution (at 450 nm) was determined. When the above described binding assays were performed on covalently coupled monosaccharide acceptors, such as the case with Covalink NH plates, the TBS incubation solution was replaced with TBST and the wash steps were performed using high ionic strength buffer instead of TBST.

Assay [3] has as its system anti-Sialyl Lewis X IgM from mouse. Put plainly: Anti-Sialyl Lewis X antibody binding assay. Particulars: Library 1 strip after the ERs sequence, anti-mouse IgM-biotin, avidin-peroxidase, O.D. 450 nm, versus control strip without nucleotide sugar. The method, then: Anti-Sialyl Lewis X: 100 μl of 10 μg/ml anti-Sialyl Lewis X IgM from mouse (Calbiochem 565953) was added to the plates and incubated for 1 hour at 25° C. in TBS containing 1% BSA. The wells were washed 3 times with 200 μl TBST with a last wash consisting of a 15 minutes soak, following which, a solution of TBS containing 1% BSA and 100 μl of 5 μg/ml goat anti-mouse IgM conjugated to biotin (SIGMA b-9265) was added to the plates and incubated for one hour at 25° C. The wells were washed 3 times with […] with a last wash consisting of a 15 minutes soak, followed by incubation with […] containing 1% BSA and 5 μg/ml avidin conjugated to peroxidase (SIGMA A-3151, 40 peroxidase units per mg protein) for 1 hour at 25° C. The wells were washed three times with 200 μl TBST with a last wash consisting of a 15 minutes soak. 100 μl of fresh peroxidase substrate solution was added, and an hour later the O.D. of the solution (at 450 nm) was determined.
When the above described binding assays were performed on covalently coupled monosaccharide acceptors, such as the case with Covalink NH plates, the TBS incubation solution was replaced with TBST and the wash steps were performed using high ionic strength buffer instead of TBST.

For the substance Fucoidan, the Activity entry in assay [1] is “anti coagulant”. Regarding Gal β 1,4 (Fuc α 1,3)GlcNAc-S [EM 5], the TGP binding entry in assay [2] is on record as “increase”. Turning to “NeuAC α 2,3 Gal β 1,4 (Fuc α 1,3)GlcNAc [EM 6]”, the “IgM Anti-Sialyl Lewis X binding” value in assay [3] is given as “increase”.
